Measurements: patent publication US11325900B2, “5-(pyrimidin-4-yl)thiazol-2-yl urea derivatives as therapeutic agents” (AUCENTRA HOLDINGS PTY LTD, priority 2018, dated 2022)

Columns and labels:
CDK8/CycC = target: T1, CDK8/CycC (Homo sapiens, UniProt P49336); assay: Radiometric protein kinase assay (33PanQinase Activity Assay, ProQinase); assay type: biochemical; details: 1.0 μM ATP, 1.0 μg/50 μL substrate RBER-IRStide, duplicate measurements, read-out: CDK8 Kinase inhibition IC50
T1 construct: purchased ProQinase GmbH, Freiburg, Germany
T1 sequence (P49336 whole entry): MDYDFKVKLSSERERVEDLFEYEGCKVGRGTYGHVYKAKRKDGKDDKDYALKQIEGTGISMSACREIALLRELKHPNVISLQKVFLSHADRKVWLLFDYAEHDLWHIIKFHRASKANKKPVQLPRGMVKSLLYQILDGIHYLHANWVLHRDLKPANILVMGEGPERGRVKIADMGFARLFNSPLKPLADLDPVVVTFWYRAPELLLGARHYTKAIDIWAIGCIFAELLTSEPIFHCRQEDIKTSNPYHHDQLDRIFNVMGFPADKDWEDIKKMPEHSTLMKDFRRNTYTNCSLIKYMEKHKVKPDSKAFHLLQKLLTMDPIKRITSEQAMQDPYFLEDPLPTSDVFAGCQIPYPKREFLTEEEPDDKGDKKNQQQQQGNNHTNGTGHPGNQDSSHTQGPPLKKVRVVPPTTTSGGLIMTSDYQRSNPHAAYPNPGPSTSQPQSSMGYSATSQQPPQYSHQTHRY
T1 sequence (P24863 whole entry partner): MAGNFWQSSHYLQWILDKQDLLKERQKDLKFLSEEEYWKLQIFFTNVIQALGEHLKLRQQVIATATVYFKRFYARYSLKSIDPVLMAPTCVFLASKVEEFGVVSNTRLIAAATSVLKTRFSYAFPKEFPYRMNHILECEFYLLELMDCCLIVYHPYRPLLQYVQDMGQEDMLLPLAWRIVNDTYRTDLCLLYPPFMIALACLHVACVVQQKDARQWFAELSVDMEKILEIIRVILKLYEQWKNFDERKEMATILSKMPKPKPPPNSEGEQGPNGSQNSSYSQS
Procedure: The kinase activity of CDK8/CycC was measured using a radiometric protein kinase assay (33PanQinase® Activity Assay) by ProQinase GmbH, Freiburg, Germany, with the protocols shown at www.proqinase.com/sites/default/files/public/uploads/WildtypeProfiler/radiometric_assay_v05_2012_manual.pdf. IC50 determination (8.3 nM with 1.0 μM ATP and 1.0 μg/50 μL of substrate RBER-IRStide) was performed as duplicate measurements and calculated using Quattro Workflow V3.1.1 (Quattro Research GmbH, Germany). Apparent inhibition constants (Ki) values were calculated from Km (ATP) and IC50 values for the respective kinases.

MV-4-11 = assay: Cell viability assay (resazurin, leukemia cell lines), 72 h growth inhibition; assay type: cell-based; details: Homo sapiens, MV4-11, MV-4-11 cells
Source text: Compounds from Example 1 may be subjected to a standard MTT (3-(4,5-dimethylthiazol-2-yl)-2,5-diphenyltetrazolium bromide) and resazurin assays on solid tumour cell lines and leukemia cell lines, respectively, as previously reported (Wang S et al., J Med Chem 47:1662-1675, 2004 and Diab S e al. CheMedChem 9:962-972, 2014). Compound concentrations required to inhibit 50% of cell growth (GI50) can be calculated using non-linear regression analysis.

SMILES	IC50 (CDK8/CycC) [nM]	GI50 (MV-4-11) [nM]
CC(=O)N1CCN(Cc2ccc(NC(=O)Nc3nc(C)c(-c4ccnc(C(C)C)n4)s3)cc2C(F)(F)F)CC1 [Compound 77, 1-(4-((4-Acetylpiperazin-1-yl)methyl)-3-(trifluoromethyl)phenyl)-3-(5-(2-isopropylpyrimidin-4-yl)-4-methylthiazol-2-yl)urea]	169	712 ± 20
CCN1CCN(Cc2ccc(NC(=O)Nc3nc(C)c(-c4nc(NC)ncc4C#N)s3)cc2C(F)(F)F)CC1 [Compound 72, 1-(5-(5-Cyano-2-(methylamino)pyrimidin-4-yl)-4-methylthiazol-2-yl)-3-(4-((4-ethylpiperazin-1-yl)methyl)-3-(trifluoromethyl)phenyl)urea]	64	432 ± 10
CNc1ncc(C#N)c(-c2sc(NC(=O)Nc3ccc(CN4CCN(C)CC4)c(C(F)(F)F)c3)nc2C)n1 [Compound 71, 1-(5-(5-Cyano-2-(methylamino)pyrimidin-4-yl)-4-methylthiazol-2-yl)-3-(4-((4-methylpiperazin-1-yl)methyl)-3-(trifluoromethyl)phenyl)urea]	50	200 ± 20
CNc1ncc(F)c(-c2sc(NC(=O)Nc3ccc(CN4CCOCC4)c(C(F)(F)F)c3)nc2C)n1 [Compound 70, 1-(5-(5-Fluoro-2-(methylamino)pyrimidin-4-yl)-4-methylthiazol-2-yl)-3-(4-(morpholinomethyl)-3-(trifluoromethyl)phenyl)urea]	25	273 ± 10
Cc1nc(NC(=O)Nc2ccc(CN3CCOCC3)c(C(F)(F)F)c2)sc1-c1ccnc(C(C)C)n1 [Compound 79, 1-(5-(2-Isopropylpyrimidin-4-yl)-4-methylthiazol-2-yl)-3-(4-(morpholinomethyl)-3-(trifluoromethyl)phenyl)urea]	206	998 ± 60
Cc1nc(NC(=O)Nc2ccc(CN3CCN(S(C)(=O)=O)CC3)c(C(F)(F)F)c2)sc1-c1ccnc(C(C)C)n1 [Compound 78, 1-(5-(2-Isopropylpyrimidin-4-yl)-4-methylthiazol-2-yl)-3-(4-((4-(methylsulfonyl)-piperazin-1-yl)methyl)-3-(trifluoromethyl)phenyl)urea]	293	1590 ± 90
CNc1ncc(C#N)c(-c2sc(NC(=O)Nc3ccc(CN4CCOCC4)c(C(F)(F)F)c3)nc2C)n1 [Compound 75, 1-(5-(5-Cyano-2-(methylamino)pyrimidin-4-yl)-4-methylthiazol-2-yl)-3-(4-(morpholinomethyl)-3-(trifluoromethyl)phenyl)urea]	82	3420 ± 230
CNc1ncc(C#N)c(-c2sc(NC(=O)Nc3ccc(CN4CCN(C(C)C)CC4)c(C(F)(F)F)c3)nc2C)n1 [Compound 73, 1-(5-(5-Cyano-2-(methylamino)pyrimidin-4-yl)-4-methylthiazol-2-yl)-3-(4-((4-isopropylpiperazin-1-yl)methyl)-3-(trifluoromethyl)phenyl)urea]	59	482 ± 30
CSc1nccc(-c2sc(NC(=O)Nc3ccc(CN4CCN(S(C)(=O)=O)CC4)c(C(F)(F)F)c3)nc2C)n1 [Compound 82, 1-(4-Methyl-5-(2-(methylthio)pyrimidin-4-yl)thiazol-2-yl)-3-(4-((4-(methyl-sulfonyl)piperazin-1-yl)methyl)-3-(trifluoromethyl)phenyl)urea]	220	721 ± 30
Cc1nc(NC(=O)Nc2ccc(CN3CCN(C(C)C)CC3)c(C(F)(F)F)c2)sc1-c1ccnc(N)n1 [Compound 63, 1-(5-(2-Aminopyrimidin-4-yl)-4-methylthiazol-2-yl)-3-(4-((4-isopropylpiperazin-1-yl)methyl)-3-(trifluoromethyl)phenyl)urea]	13	3
CCNc1nccc(-c2sc(NC(=O)Nc3ccc(CN4CCN(C)CC4)c(C(F)(F)F)c3)nc2C)n1 [Compound 52, 1-(5-(2-(Ethylamino)pyrimidin-4-yl)-4-methylthiazol-2-yl)-3-(4-((4-methylpiperazin-1-yl)methyl)-3-(trifluoromethyl)phenyl)urea]	15	< 1
CNc1ncc(Cl)c(-c2sc(NC(=O)Nc3ccc(CN4CCN(C(C)=O)CC4)c(C(F)(F)F)c3)nc2C)n1 [Compound 68, 1-(4-((4-Acetylpiperazin-1-yl)methyl)-3-(trifluoromethyl)phenyl)-3-(5-(5-chloro-2-(methylamino)pyrimidin-4-yl)-4-methylthiazol-2-yl)urea]	80	4250 ± 420
CCNc1nccc(-c2sc(NC(=O)Nc3ccc(CN4CCN(C(C)C)CC4)c(C(F)(F)F)c3)nc2C)n1 [Compound 54, 1-(5-(2-(ethylamino)pyrimidin-4-yl)-4-methylthiazol-2-yl)-3-(4-((4-isopropylpiperazin-1-yl)methyl)-3-(trifluoromethyl)phenyl)urea]	16	< 1
CNc1nccc(-c2cnc(NC(=O)Nc3ccc(CN4CCN(C)CC4)c(C(F)(F)F)c3)s2)n1 [Compound 58, 1-(5-(2-(Methylamino)pyrimidin-4-yl)thiazol-2-yl)-3-(4-((4-methylpiperazin-1-yl)methyl)-3-(trifluoromethyl)phenyl)urea]	7	1
CNc1nccc(-c2cnc(NC(=O)Nc3ccc(CN4CCN(C(C)=O)CC4)c(C(F)(F)F)c3)s2)n1 [Compound 61, 1-(4-((4-Acetylpiperazin-1-yl)methyl)-3-(trifluoromethyl)phenyl)-3-(5-(2-(methylamino)pyrimidin-4-yl)thiazol-2-yl)urea]	20	176 ± 40
CSc1nccc(-c2sc(NC(=O)Nc3ccc(CN4CCN(C(C)=O)CC4)c(C(F)(F)F)c3)nc2C)n1 [Compound 81, 1-(4-((4-Acetylpiperazin-1-yl)methyl)-3-(trifluoromethyl)phenyl)-3-(4-methyl-5-(2-(methylthio)pyrimidin-4-yl)thiazol-2-yl)urea]	177	715 ± 10

The next lines start with the values.

IC50 (CDK8/CycC) [nM]	GI50 (MV-4-11) [nM]	SMILES
1360	–	CNc1nccc(-c2sc(NC(=O)Nc3ccccc3C(F)(F)F)nc2C)n1 [Compound 2, 1-(4-Methyl-5-(2-(methylamino)-pyrimidin-4-yl)thiazol-2-yl)-3-(2-(trifluoromethyl)phenyl)urea]
11	< 1	CNc1nccc(-c2sc(NC(=O)Nc3ccc(CN4CCN(C(C)C)CC4)c(C(F)(F)F)c3)nc2C)n1 [Compound 34, 1-(4-((4-Isopropylpiperazin-1-yl)methyl)-3-(trifluoromethyl)-phenyl)-3-(4-methyl-5-(2-(methylamino)pyrimidin-4-yl)thiazol-2-yl)urea]
–	994 ± 130	CNc1nccc(-c2sc(NC(=O)Nc3ccc(CN4CCCCC4)c(C(F)(F)F)c3)nc2C)n1 [Compound 38, 1-(4-Methyl-5-(2-(methylamino)-pyrimidin-4-yl)thiazol-2-yl)-3-(4-(piperidin-1-ylmethyl)-3-(trifluoromethyl)phenyl)urea]
14	85	CNc1nccc(-c2sc(NC(=O)Nc3ccc(CN4CCN(C(C)=O)CC4)c(C(F)(F)F)c3)nc2C)n1 [Compound 35, 1-(4-((4-Acetylpiperazin-1-yl)methyl)-3-(trifluoromethyl)-phenyl)-3-(4-methyl-5-(2-(methylamino)pyrimidin-4-yl)thiazol-2-yl)urea]
9	2270 ± 680	CNc1nccc(-c2sc(NC(=O)Nc3cccc(OC)c3)nc2C)n1 [Compound 16, 1-(3-Methoxyphenyl)-3-(4-methyl-5-(2-(methylamino)pyrimidin-4-yl)thiazol-2-yl)urea]
34	2510 ± 390	CNc1nccc(-c2sc(NC(=O)Nc3ccc(CN4CCC(C)CC4)c(C(F)(F)F)c3)nc2C)n1 [Compound 40, 1-(4-Methyl-5-(2-(methylamino)-pyrimidin-4-yl)thiazol-2-yl)-3-(4-((4-methylpiperidin-1-yl)methyl)-3-(trifluoromethyl)phenyl)urea]
8	96	CNc1nccc(-c2sc(NC(=O)Nc3ccc(CN4CCC(N)CC4)c(C(F)(F)F)c3)nc2C)n1 [Compound 39, 1-(4-((4-Aminopiperidin-1-yl)methyl)-3-(trifluoromethyl)-phenyl)-3-(4-methyl-5-(2-(methylamino)pyrimidin-4-yl)thiazol-2-yl)urea]
233	–	CNc1nccc(-c2sc(NC(=O)Nc3ccc(F)cc3C)nc2C)n1 [Compound 6, 1-(4-Fluoro-2-methylphenyl)-3-(4-methyl-5-(2-(methylamino)-pyrimidin-4-yl)thiazol-2-yl)urea]
19	–	CNc1nccc(-c2sc(NC(=O)Nc3ccc(C(F)(F)F)cc3)nc2C)n1 [Compound 41, 1-(4-Methyl-5-(2-(methylamino)pyrimidin-4-yl)thiazol-2-yl)-3-(4-(trifluoromethyl)phenyl)urea]
2300	–	CNc1nccc(-c2sc(NC(=O)Nc3ccc(F)cc3C(F)(F)F)nc2C)n1 [Compound 7, 1-(4-fluoro-2-(trifluoromethyl)-phenyl)-3-(4-methyl-5-(2-(methylamino)-pyrimidin-4-yl)thiazol-2-yl)urea]
65	–	CNc1nccc(-c2sc(NC(=O)Nc3ccc(C(F)(F)F)cc3C(F)(F)F)nc2C)n1 [Compound 8, 1-(2,4-Bis(trifluoromethyl)phenyl)-3-(4-methyl-5-(2-(methylamino)-pyrimidin-4-yl)thiazol-2-yl)urea]
